# Measured values taken from BindingDB's records for patent US9284322 (Research Triangle Institute, 2016).
# Target: Isoform Alpha-4-2 of Neuronal acetylcholine receptor subunit alpha-4 (Alpha-4-2)/Neuronal acetylcholine receptor subunit beta-2 (Rat, UniProt P09483+P12390)
# Experiment: Adult male rat cerebral cortices (Pelfreeze Biological, Rogers, Ark.) were homogenized in 39 volumes of ice-cold 50 mM Tris buffer (pH 7.4 at 4° C.) containing 120 mM NaCl, 5 mM KCl, 2 mM CaCl2, and 1 mM MgCl2 and sedimented at 37,000 g for 10 min at 4° C. The supernatant was discarded, the pellet resuspended in the original volume of buffer, and the wash procedure repeated twice more. After the last centrifugation, the pellet was resuspended in 1/10 its original homogenization volume and stored at −80° C. until needed. […] Total and nonspecific bindings were determined in the presence of vehicle and 300 μM (−)-ni
# Conditions: 25 °C
# Isoform Alpha-4-2 of Neuronal acetylcholine receptor subunit alpha-4 (Alpha-4-2)/Neuronal acetylcholine receptor subunit beta-2, sequence (P09483 as listed by the source): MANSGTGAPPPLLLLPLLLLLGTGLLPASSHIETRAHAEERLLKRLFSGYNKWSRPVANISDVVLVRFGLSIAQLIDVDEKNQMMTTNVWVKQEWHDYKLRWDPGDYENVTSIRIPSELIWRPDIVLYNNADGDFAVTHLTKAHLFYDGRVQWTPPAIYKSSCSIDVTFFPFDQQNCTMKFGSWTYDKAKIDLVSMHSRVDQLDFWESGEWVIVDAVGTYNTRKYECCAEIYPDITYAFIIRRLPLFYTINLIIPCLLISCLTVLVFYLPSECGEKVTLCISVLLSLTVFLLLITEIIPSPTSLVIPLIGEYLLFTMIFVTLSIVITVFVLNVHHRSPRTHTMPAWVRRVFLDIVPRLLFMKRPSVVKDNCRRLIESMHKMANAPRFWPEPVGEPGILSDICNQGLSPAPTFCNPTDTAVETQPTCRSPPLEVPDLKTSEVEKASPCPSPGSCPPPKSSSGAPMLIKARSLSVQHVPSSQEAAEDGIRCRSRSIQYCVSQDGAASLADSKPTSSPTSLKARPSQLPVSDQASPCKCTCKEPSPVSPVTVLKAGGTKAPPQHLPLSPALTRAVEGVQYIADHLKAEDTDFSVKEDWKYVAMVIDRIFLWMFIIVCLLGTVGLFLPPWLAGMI
# Isoform Alpha-4-2 of Neuronal acetylcholine receptor subunit alpha-4 (Alpha-4-2)/Neuronal acetylcholine receptor subunit beta-2, sequence (P12390 whole entry, canonical isoform): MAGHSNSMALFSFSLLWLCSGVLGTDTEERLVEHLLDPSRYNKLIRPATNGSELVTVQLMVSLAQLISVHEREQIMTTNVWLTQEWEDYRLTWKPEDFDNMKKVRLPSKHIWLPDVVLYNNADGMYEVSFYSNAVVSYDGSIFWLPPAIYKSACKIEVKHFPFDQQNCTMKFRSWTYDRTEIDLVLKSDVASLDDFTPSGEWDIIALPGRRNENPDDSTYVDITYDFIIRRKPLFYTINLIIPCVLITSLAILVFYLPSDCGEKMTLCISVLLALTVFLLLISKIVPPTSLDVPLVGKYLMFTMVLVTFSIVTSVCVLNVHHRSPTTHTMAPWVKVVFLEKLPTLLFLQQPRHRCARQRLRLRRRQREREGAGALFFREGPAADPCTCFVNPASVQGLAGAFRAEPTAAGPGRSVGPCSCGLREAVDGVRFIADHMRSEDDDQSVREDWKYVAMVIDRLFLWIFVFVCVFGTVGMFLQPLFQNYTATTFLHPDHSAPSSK
row,Compound,Ki [nM]
1,"c1ncc(-c2cncc(C3CC4CCC3N4)c2)cn1 (stereo not drawn) [US9284322, Table 7, Compound 1]",0.12
2,"Fc1ncc(C2CC3CCC2N3)cc1-c1cncnc1 (stereo not drawn) [US9284322, Table 7, Compound 2]",0.84
3,"Clc1ncc(C2CC3CCC2N3)cc1-c1cncnc1 (stereo not drawn) [US9284322, Table 7, Compound 3]",0.32
